# Laboratory results taken from ChEMBL document CHEMBL1151757, “Synthesis, radiosynthesis, and biological evaluation of fluorine-18-labeled 2beta-carbo(fluoroalkoxy)-3beta-(3'-((Z)-2-haloethenyl)phenyl)nortropanes: candidate radioligands for in vivo imaging of the serotonin transporter with positron emission tomography” (J Med Chem, 2008).
# Columns and labels:
# [1] = Drug uptake in awake rhesus monkey brain frontal lobe after 105 mins postinjection; assay type: ADME, organism-based, Macaca mulatta; conditions: in vivo, 1.75 h
# [2] = Drug uptake in awake rhesus monkey brain caudate after 85 mins postinjection; assay type: ADME, organism-based, Macaca mulatta, Caudate nucleus; conditions: in vivo
# [3] = Ratio of drug uptake in midbrain to cerebellum in awake rhesus monkey after 85 mins postinjection; assay type: ADME, organism-based, Macaca mulatta; conditions: in vivo
# [4] = Drug uptake in awake rhesus monkey brain thalamus after 10.5 mins postinjection; assay type: ADME, organism-based, Macaca mulatta; conditions: in vivo, 0.175 h
# [5] = Drug uptake in awake rhesus monkey brain thalamus after 95 mins postinjection; assay type: ADME, organism-based, Macaca mulatta; conditions: in vivo
# [6] = Drug uptake in awake rhesus monkey brain medulla after 10.5 mins postinjection; assay type: ADME, organism-based, Macaca mulatta; conditions: in vivo, 0.175 h
# [7] = Drug uptake in awake rhesus monkey brain caudate after 13.5 mins postinjection; assay type: ADME, organism-based, Macaca mulatta, Caudate nucleus; conditions: in vivo, 0.225 h
# [8] = Drug uptake in awake rhesus monkey brain midbrain after 7.5 mins postinjection; assay type: ADME, organism-based, Macaca mulatta; conditions: in vivo, 0.125 h
# [9] = Drug uptake in awake rhesus monkey brain caudate after 10.5 mins postinjection; assay type: ADME, organism-based, Macaca mulatta, Caudate nucleus; conditions: in vivo, 0.175 h
# [10] = Drug uptake in awake rhesus monkey brain cerebellum after 45 mins postinjection; assay type: ADME, organism-based, Macaca mulatta; conditions: in vivo, 0.75 h
# [11] = Drug uptake in awake rhesus monkey brain midbrain after 55 mins postinjection; assay type: ADME, organism-based, Macaca mulatta; conditions: in vivo
# [12] = Drug uptake in awake rhesus monkey brain putamen after 95 mins postinjection; assay type: ADME, organism-based, Macaca mulatta; conditions: in vivo
# [13] = Drug uptake in awake rhesus monkey brain cerebellum after 10.5 mins postinjection; assay type: ADME, organism-based, Macaca mulatta; conditions: in vivo, 0.175 h
# [14] = Ratio of drug uptake in pons to cerebellum in awake rhesus monkey after 7.5 mins postinjection; assay type: ADME, organism-based, Macaca mulatta; conditions: in vivo, 0.125 h
# [15] = Drug uptake in awake rhesus monkey brain pons after 65 mins postinjection; assay type: ADME, organism-based, Macaca mulatta; conditions: in vivo
# [16] = Drug uptake in awake rhesus monkey brain medulla after 95 mins postinjection; assay type: ADME, organism-based, Macaca mulatta; conditions: in vivo
# [17] = Drug uptake in awake rhesus monkey brain frontal lobe after 25 mins postinjection; assay type: ADME, organism-based, Macaca mulatta; conditions: in vivo
# [18] = Drug uptake in awake rhesus monkey brain cerebellum after 25 mins postinjection; assay type: ADME, organism-based, Macaca mulatta; conditions: in vivo
# [19] = Drug uptake in awake rhesus monkey brain midbrain after 85 mins postinjection; assay type: ADME, organism-based, Macaca mulatta; conditions: in vivo
# [20] = Drug uptake in awake rhesus monkey brain midbrain after 105 mins postinjection; assay type: ADME, organism-based, Macaca mulatta; conditions: in vivo, 1.75 h
# [21] = Ratio of drug uptake in midbrain to cerebellum in awake rhesus monkey after 7.5 mins postinjection; assay type: ADME, organism-based, Macaca mulatta; conditions: in vivo, 0.125 h
# [22] = Drug uptake in awake rhesus monkey brain medulla after 55 mins postinjection; assay type: ADME, organism-based, Macaca mulatta; conditions: in vivo
# [23] = Drug uptake in awake rhesus monkey brain pons after 25 mins postinjection; assay type: ADME, organism-based, Macaca mulatta; conditions: in vivo
# [24] = Drug uptake in awake rhesus monkey brain midbrain after 25 mins postinjection; assay type: ADME, organism-based, Macaca mulatta; conditions: in vivo
# [25] = Drug uptake in awake rhesus monkey brain medulla after 35 mins postinjection; assay type: ADME, organism-based, Macaca mulatta; conditions: in vivo
# [26] = Ratio of drug uptake in frontal lobe to cerebellum in awake rhesus monkey after 35 mins postinjection; assay type: ADME, organism-based, Macaca mulatta; conditions: in vivo
# [27] = Ratio of drug uptake in thalamus to cerebellum in awake rhesus monkey after 105 mins postinjection; assay type: ADME, organism-based, Macaca mulatta; conditions: in vivo, 1.75 h
# [28] = Ratio of drug uptake in putamen to cerebellum in awake rhesus monkey after 105 mins postinjection; assay type: ADME, organism-based, Macaca mulatta; conditions: in vivo, 1.75 h
# [29] = Drug uptake in awake rhesus monkey brain caudate after 95 mins postinjection; assay type: ADME, organism-based, Macaca mulatta, Caudate nucleus; conditions: in vivo
# [30] = Drug uptake in awake rhesus monkey brain caudate after 4.5 mins postinjection; assay type: ADME, organism-based, Macaca mulatta, Caudate nucleus; conditions: in vivo, 0.075 h
# Pons [31] = assay: Drug uptake in anesthetized cynomolgus monkey brain pons after 207.5 mins postinjection; assay type: ADME, organism-based, Macaca fascicularis; conditions: in vivo
# Medulla [32] = assay: Drug uptake in anesthetized cynomolgus monkey brain medulla after 207.5 mins postinjection; assay type: ADME, organism-based, Macaca fascicularis; conditions: in vivo
# Medulla [33] = assay: Drug uptake in anesthetized cynomolgus monkey brain medulla after 197.5 mins postinjection; assay type: ADME, organism-based, Macaca fascicularis; conditions: in vivo
# Midbrain [34] = assay: Drug uptake in anesthetized cynomolgus monkey brain midbrain after 182.5 mins postinjection; assay type: ADME, organism-based, Macaca fascicularis; conditions: in vivo
# Thalamus [35] = assay: Drug uptake in anesthetized cynomolgus monkey brain thalamus after 197.5 mins postinjection; assay type: ADME, organism-based, Macaca fascicularis; conditions: in vivo
# [36] = Drug uptake in anesthetized cynomolgus monkey brain cerebellum after 182.5 mins postinjection; assay type: ADME, organism-based, Macaca fascicularis; conditions: in vivo
# Putamen [37] = assay: Drug uptake in anesthetized cynomolgus monkey brain putamen after 187.5 mins postinjection; assay type: ADME, organism-based, Macaca fascicularis; conditions: in vivo, 3.125 h
# Medulla [38] = assay: Drug uptake in anesthetized cynomolgus monkey brain medulla after 202.5 mins postinjection; assay type: ADME, organism-based, Macaca fascicularis; conditions: in vivo, 3.375 h
# Thalamus [39] = assay: Drug uptake in anesthetized cynomolgus monkey brain thalamus after 187.5 mins postinjection; assay type: ADME, organism-based, Macaca fascicularis; conditions: in vivo, 3.125 h
# Caudate [40] = assay: Drug uptake in anesthetized cynomolgus monkey brain caudate after 207.5 mins postinjection; assay type: ADME, organism-based, Macaca fascicularis, Caudate nucleus; conditions: in vivo
# Caudate [41] = assay: Drug uptake in anesthetized cynomolgus monkey brain caudate after 202.5 mins postinjection; assay type: ADME, organism-based, Macaca fascicularis, Caudate nucleus; conditions: in vivo, 3.375 h
# Midbrain [42] = assay: Drug uptake in anesthetized cynomolgus monkey brain midbrain after 197.5 mins postinjection; assay type: ADME, organism-based, Macaca fascicularis; conditions: in vivo
# Medulla [43] = assay: Drug uptake in anesthetized cynomolgus monkey brain medulla after 187.5 mins postinjection; assay type: ADME, organism-based, Macaca fascicularis; conditions: in vivo, 3.125 h
# Pons [44] = assay: Drug uptake in anesthetized cynomolgus monkey brain pons after 187.5 mins postinjection; assay type: ADME, organism-based, Macaca fascicularis; conditions: in vivo, 3.125 h
# [45] = Drug uptake in anesthetized cynomolgus monkey brain cerebellum after 207.5 mins postinjection; assay type: ADME, organism-based, Macaca fascicularis; conditions: in vivo
# Pons [46] = assay: Drug uptake in anesthetized cynomolgus monkey brain pons after 192.5 mins postinjection; assay type: ADME, organism-based, Macaca fascicularis; conditions: in vivo
# Midbrain [47] = assay: Drug uptake in anesthetized cynomolgus monkey brain midbrain after 192.5 mins postinjection; assay type: ADME, organism-based, Macaca fascicularis; conditions: in vivo
# Putamen [48] = assay: Drug uptake in anesthetized cynomolgus monkey brain putamen after 202.5 mins postinjection; assay type: ADME, organism-based, Macaca fascicularis; conditions: in vivo, 3.375 h
# Putamen [49] = assay: Drug uptake in anesthetized cynomolgus monkey brain putamen after 192.5 mins postinjection; assay type: ADME, organism-based, Macaca fascicularis; conditions: in vivo
# Putamen [50] = assay: Drug uptake in anesthetized cynomolgus monkey brain putamen after 197.5 mins postinjection; assay type: ADME, organism-based, Macaca fascicularis; conditions: in vivo
# [51] = Drug uptake in anesthetized cynomolgus monkey brain occipital lobe after 202.5 mins postinjection; assay type: ADME, organism-based, Macaca fascicularis; conditions: in vivo, 3.375 h
# Putamen [52] = assay: Drug uptake in anesthetized cynomolgus monkey brain putamen after 207.5 mins postinjection; assay type: ADME, organism-based, Macaca fascicularis; conditions: in vivo
# Midbrain [53] = assay: Drug uptake in anesthetized cynomolgus monkey brain midbrain after 187.5 mins postinjection; assay type: ADME, organism-based, Macaca fascicularis; conditions: in vivo, 3.125 h
# Thalamus [54] = assay: Drug uptake in anesthetized cynomolgus monkey brain thalamus after 192.5 mins postinjection; assay type: ADME, organism-based, Macaca fascicularis; conditions: in vivo
# [55] = Drug uptake in anesthetized cynomolgus monkey brain frontal lobe after 197.5 mins postinjection; assay type: ADME, organism-based, Macaca fascicularis; conditions: in vivo
# Midbrain [56] = assay: Drug uptake in anesthetized cynomolgus monkey brain midbrain after 202.5 mins postinjection; assay type: ADME, organism-based, Macaca fascicularis; conditions: in vivo, 3.375 h
# Caudate [57] = assay: Drug uptake in anesthetized cynomolgus monkey brain caudate after 182.5 mins postinjection; assay type: ADME, organism-based, Macaca fascicularis, Caudate nucleus; conditions: in vivo
smiles,measurement,setting,value
O=C(OCC[18F])C1C2CCC(CC1c1ccc(/C=C\I)cc1)N2 (configuration not stated),Drug uptake,[1],2.07
same,Drug uptake,[2],3.27
same,Ratio,[3],1.6
same,Drug uptake,[4],1.89
same,Drug uptake,[5],3.79
same,Drug uptake,[6],1.79
same,Drug uptake,[7],1.87
same,Drug uptake,[8],1.35
same,Drug uptake,[9],1.73
same,Drug uptake,[10],1.93
same,Drug uptake,[11],2.76
same,Drug uptake,[12],3.34
same,Drug uptake,[13],1.66
same,Ratio,[14],0.9
same,Drug uptake,[15],2.49
same,Drug uptake,[16],2.35
same,Drug uptake,[17],2.16
same,Drug uptake,[18],2.12
same,Drug uptake,[19],2.99
same,Drug uptake,[20],3.24
same,Ratio,[21],1
same,Drug uptake,[22],2.48
same,Drug uptake,[23],2.29
same,Drug uptake,[24],2.46
same,Drug uptake,[25],2.46
same,Ratio,[26],1
same,Ratio,[27],2.8
same,Ratio,[28],2.5
same,Drug uptake,[29],3.19
same,Drug uptake,[30],1.17
O=C(OCC[18F])C1C2CCC(CC1c1cccc(/C=C\I)c1)N2 (configuration not stated),Drug uptake,Pons [31],2.19
same,Drug uptake,[1],0.1
same,Drug uptake,[2],0.14
same,Ratio,[3],1.6
same,Drug uptake,Medulla [32],2.5
same,Drug uptake,Medulla [33],2.51
same,Drug uptake,[4],0.12
same,Drug uptake,[5],0.16
same,Drug uptake,[6],0.09
same,Drug uptake,Midbrain [34],3.4
same,Drug uptake,[7],0.09
same,Drug uptake,[8],0.08
same,Drug uptake,[9],0.1
same,Drug uptake,Thalamus [35],2.46
same,Drug uptake,[36],1.52
same,Drug uptake,[10],0.12
same,Drug uptake,[11],0.16
same,Drug uptake,Putamen [37],2.77
same,Drug uptake,Medulla [38],2.54
same,Drug uptake,Thalamus [39],2.65
same,Drug uptake,Caudate [40],2.16
same,Drug uptake,Caudate [41],2.21
same,Drug uptake,[12],0.16
same,Drug uptake,[13],0.08
same,Drug uptake,Midbrain [42],3.2
same,Drug uptake,Medulla [43],2.64
same,Ratio,[14],1
same,Drug uptake,[15],0.14
same,Drug uptake,[16],0.11
same,Drug uptake,Pons [44],2.31
same,Drug uptake,[45],1.4
same,Drug uptake,[17],0.11
same,Drug uptake,Pons [46],2.14
same,Drug uptake,Midbrain [47],3.24
same,Drug uptake,Putamen [48],2.63
same,Drug uptake,[18],0.11
same,Drug uptake,Putamen [49],2.67
same,Drug uptake,[19],0.16
same,Drug uptake,[20],0.15
same,Ratio,[21],1.1
same,Drug uptake,[22],0.12
same,Drug uptake,Putamen [50],2.63
same,Drug uptake,[51],1.33
same,Drug uptake,[23],0.12
same,Drug uptake,[24],0.13
same,Drug uptake,Putamen [52],2.58
same,Drug uptake,Midbrain [53],3.37
same,Drug uptake,[25],0.12
same,Ratio,[26],1
same,Drug uptake,Thalamus [54],2.56
same,Ratio,[27],1.7
same,Ratio,[28],1.5
same,Drug uptake,[29],0.14
same,Drug uptake,[55],1.58
same,Drug uptake,Midbrain [56],3.15
same,Drug uptake,Caudate [57],2.31
same,Drug uptake,[30],0.06
